Results from article PMC11475369, “Exploring the Potential of Synthetic Cannabinoids: Modulation of Biological Activity of Normal and Cancerous Human Colon Epithelial Cells” (Cells, 2024).
In brackets after ≈: the same amount, converted by molar mass.

What was measured:
HT29 cells [1] = assay: Nitric oxide (NOx) release in HT29 culture, Griess method; assay type: cell-based, human; details: HT29 cancer cells, 0–200 μg/mL, 24 h
Method: In this spectrophotometric method, the stable end products (nitrate and nitrite) were analyzed in the normal and tumor culture supernatants after 24 h of incubation of the cells with the cannabinoids in the concentration range of 0–200 μg/mL. The Griess reaction was applied. This method involves a 2-step reaction, whose product is a red-pink azo dye. The amount of this dye is directly proportional to the amount of NO. The cells were cultured for 24 h in 24-well plates (1 mL/well, density 1 × 10^5 cells/mL); next, after withdrawing the culture fluid, the tested cannabinoids were added to the wells at a volume of 1 mL/well and the incubation was carried out for another 24 h. After the incubation, the culture media were collected and frozen at −80 °C for no longer than 1 month. For calibration and quantitative analysis, the standard curve was prepared using 0.5–25 μM sodium nitrite (NaNO2). Thawed and centrifuged (5000 rpm/5 min.) supernatant samples and the standard were poured into a 96-well flat-bottomed plate at 100 µL/well. Each sample was analyzed in triplicate. […] Finally, the absorbance of the samples was spectrophotometrically read at 570 nm using an EL800 Universal Microplate Reader (BioTek Instruments, Winooski, VT, USA).

CCD 841 CoTr cells = assay: Nitric oxide (NOx) release in CCD 841 CoTr culture, Griess method; assay type: cell-based, human; details: CCD 841 CoTr normal cells, 0–200 μg/mL, 24 h
Method: In this spectrophotometric method, the stable end products (nitrate and nitrite) were analyzed in the normal and tumor culture supernatants after 24 h of incubation of the cells with the cannabinoids in the concentration range of 0–200 μg/mL. The Griess reaction was applied. This method involves a 2-step reaction, whose product is a red-pink azo dye. The amount of this dye is directly proportional to the amount of NO. The cells were cultured for 24 h in 24-well plates (1 mL/well, density 1 × 10^5 cells/mL); next, after withdrawing the culture fluid, the tested cannabinoids were added to the wells at a volume of 1 mL/well and the incubation was carried out for another 24 h. After the incubation, the culture media were collected and frozen at −80 °C for no longer than 1 month. For calibration and quantitative analysis, the standard curve was prepared using 0.5–25 μM sodium nitrite (NaNO2). Thawed and centrifuged (5000 rpm/5 min.) supernatant samples and the standard were poured into a 96-well flat-bottomed plate at 100 µL/well. Each sample was analyzed in triplicate. Subsequently, 100 µL/well of Griess reagent (1% sulfanilamide/0.1% N-(1-naphthyl)ethylenediamine dihydrochloride) in 3% H3PO4 was added to all wells and incubated at room temperature for 10 min. Finally, the absorbance of the samples was spectrophotometrically read at 570 nm using an EL800 Universal Microplate Reader (BioTek Instruments, Winooski, VT, USA).

HT29 cells [2] = assay: Flow cytometry annexin V-FITC/PI, cell death types in HT29 cells; assay type: cell-based, human; details: HT29, 25 μg/mL, 24 h; for viability at 25 µg/mL: Homo sapiens, HT-29, read-out: Percentage of viable cells
Method: In a further flow cytometric study measuring normal and tumor cell death types, the cells were exposed to the cannabinoids at a concentration of 25 μg/mL for 24 h.
The annexin V-fluorescein isothiocyanate (FITC)/propidium iodide (PI) apoptosis kit (BD Biosciences, BD Pharmingen™, San Jose, CA, USA) was used for the quantitative analysis of cannabinoid-induced cell death.
For the analyses, both adhered (after detaching the cells with 10 mM EDTA in PBS w/o Ca^2+ and Mg^2+ ions solution) and floating cells were collected after 24 h of incubation with the tested cannabinoids. After collection, the cells were gently centrifuged (1000 rpm/5 min.). Next, the supernatant was discarded, and the cell pellet was suspended in warm PBS w/o Ca^2+ and Mg^2+ ions and incubated for 5 min. at room temperature. The centrifugation procedure was repeated again and, following the manufacturer’s procedure, the cells were suspended in 100 μL of 1X Annexin V Binding Buffer with 5 μL of FITC Annexin V […] and 5 μL of propidium iodide (PI) (5 mM). The preparation was gently vortexed and incubated at room temperature for 15 min. in the dark. After that time, the cells were subjected to cytometric analysis. Before dosing the cells into the cytometer, 400 μL of 1X Binding Buffer was added. The cells were analyzed using a flow cytometer (BD FACSCalibur) with CellQuest Pro Version 6.0 software within 1 h after the staining was completed.

HT29 cells [3] = assay: MTT assay, metabolic activity of HT29 cells; assay type: cell-based; details: Homo sapiens, HT-29; HT29 colon tumor cells, 24 h incubation; read-out: IC50 Values (MTT method)
Method: The HT29 cell line (ATCC no. HTB-38) (human colon adenocarcinoma) was used in the present study. Cells were cultivated in RPMI 1640 culture medium with 10% fetal calf serum (FCS) (GibcoTM, Paisley, UK), supplemented with antibiotics (100 U/mL penicillin and 100 μg/mL streptomycin) (Sigma, St. Louis, MO, USA). The cell culture was performed in standard conditions, i.e., at 37 °C in a humidified atmosphere with 5% CO2. The CCD 841 CoTr cell line (ATCC no. CRL-1807) (human normal colon epithelium) was cultivated in RPMI 1640 +DMEM (1:1) medium (Sigma, St. Louis, MO, USA) with 10% FCS and the addition of antibiotics. The culture was carried out at 34 °C in a 5% CO2/95% air atmosphere.
After seeding (1 × 10^5 cells/mL) in a 96-well plate, the cells were incubated for 24 h. Thereafter, the tested compounds (100 μL) at a concentration range of 0–200 μg/mL in the culture medium were added to the wells (100 μL). The incubation lasted for 24 h. After that time, an MTT solution (5 mg/mL, 25 μL/well) was added to each well. The incubation was continued for another 3 h. After the incubation, 10% sodium dodecyl sulfate (SDS) in 0.01 M HCl (100 μL) was added in order to dissolve the purple formazan crystals. Solubilization was carried out overnight. Finally, spectrophotometric measurement was performed at 570 nm using an EL800 Universal Microplate Reader (BioTek Instruments, Winooski, VT, USA).

Row | Compound | Effect on release of nitric oxide NOx (in words) (HT29 cells [1]) | Effect on release of nitric oxide NOx (in words) (CCD 841 CoTr cells) | Percentage of cells in early apoptosis (HT29 cells [2]) | Percentage of cells in late apoptosis (HT29 cells [2]) | Percentage of cells in necrosis (HT29 cells [2]) | Reduction in the number of viable cells compared to the control (HT29 cells [2]) | viability at 25 µg/mL (HT29 cells [2]) | IC50 (HT29 cells [3]) | Cells in late apoptosis, more than in the control (HT29 cells [2]) | Cells in necrosis, more than in the control (HT29 cells [2])
1 | CCCCCc1cc(O)c2c(c1)OC(C)(CCC=C(C)C)C=C2 (centres unmarked) [CBC, cannabichromene] | reduction in NOx levels with increasing cannabinoid concentration | reduction in NOx levels with increasing cannabinoid concentration | 1.36 ± 0.18% | 6.84 ± 0.71 % | 1.18 ± 0.39% | 7.13% | 88 ± 2.34% | 176 µg/mL (≈ 560 µM) |  | 
2 | CCCCCc1cc2c3c(c1)OC(C)(C)C1CCC(C)(CC31)O2 (centres unmarked) [CBT, cannabicitran] | statistically insignificant stimulating effect | reduced the level of this molecule | 0.91 ± 0.16% | 52.23 ± 1.26 % | 3.96 ± 0.40 % | 52.25% | 42.9 ± 0.96% | 69.1 µg/mL (≈ 220 µM) | 49.2% | 3.24%
3 | CCCCCc1cc(O)cc(O)c1C/C=C(\C)CCC=C(C)C [abn-CBG, abnormal cannabigerol] |  |  | 3.65 ± 0.65 % | 71.86 ± 2.36 % | 19.75 ± 2.50 % | 90.42% | 4.74 ± 0.39% | 19.6 µg/mL (≈ 62 µM) | 68.83% | 19.03%
